We go through two compounds from patent publication US20180055857A1, “TREATMENT OF ACNE VULGARIS WITH SEQUENTIAL TOPICAL FORMULATIONS COMPRISING ANTIMICROBIAL ORGANIC ACID ANIONS IN ALKALINE PHASE” (KANTIAN SCIENCES CORPORATION, priority 2015, published 2018).

One series deals with Listeria monocytogenes. To be noted: beef tissue briefly dipped in a 1% acid solution at 55° C.; cited from earlier work.
The subject of another series is E. coli O157:H7. The settings on record: beef tissue briefly dipped in a 1% acid solution at 55° C.; cited from earlier work.

Molecules are shown by their SMILES. Where two headings read alike, the source gives them in different places.

For `O=NO` [Nitrite], the “% HONO” value reads like this: (pH 2.6) 83.3%; (pH 2.8) 76.0%; (pH 3.0) 66.7%; (pH 3.3) 50.0%; (pH 3.5) 38.8%; (pH 4.0) 16.6%. In addition, the “% NO2^−” value by setting is: (pH 2.6) 16.7%; (pH 2.8) 24.0%; (pH 3.0) 33.3%; (pH 3.3) 50.0%; (pH 3.5) 61.2%; (pH 4.0) 63.4%.

With `O=C(O)/C=C/C(=O)O` [fumaric acid], the “reduction of Listeria monocytogenes” value in the series on Listeria monocytogenes is reported as “much more effective than lactic or acetic acids”. Besides, the “reduction of E. coli O157:H7” value with E. coli O157:H7 is “much more effective than lactic or acetic acids”.
